These results are taken from US9440956B2, “Indole, indazole and benzimidazole arylamides as P2X3 and P2X2/3 antagonists” (Roche Palo Alto LLC, priority 2010, dated 2016).

One test has as its target T1, rat P2X3 receptor (Rattus norvegicus, UniProt P49654).
T1 construct: expressed in transfected cells; host or cells: CHO-K1
T1 sequence (P49654 1-397): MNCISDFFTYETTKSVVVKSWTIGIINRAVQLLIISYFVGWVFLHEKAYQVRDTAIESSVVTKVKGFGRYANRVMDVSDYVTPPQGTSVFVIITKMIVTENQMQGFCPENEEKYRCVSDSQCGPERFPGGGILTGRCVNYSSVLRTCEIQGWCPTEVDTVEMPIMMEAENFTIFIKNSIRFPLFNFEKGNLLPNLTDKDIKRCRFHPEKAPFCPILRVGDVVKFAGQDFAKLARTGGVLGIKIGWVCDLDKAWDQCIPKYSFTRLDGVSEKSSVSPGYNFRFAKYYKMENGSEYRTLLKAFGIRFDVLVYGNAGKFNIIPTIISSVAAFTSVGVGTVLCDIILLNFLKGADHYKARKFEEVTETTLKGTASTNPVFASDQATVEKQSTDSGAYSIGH
As to the kind of experiment: P2X3 FLIPR (Fluorometric Imaging Plate Reader) assay. Format: cell-based. As to conditions: CHO-K1 cells transfected with cloned rat P2X3; agonist α,β-meATP 1 μM; Fluo-3 calcium fluorescence. The method, then:
(§1) P2X3/P2X2/3 FLIPR (Fluorometric Imaging Plate Reader) Assay
(§2) CHO-K1 cells were transfected with cloned rat P2X3 or human P2X2/3 receptor subunits and passaged in flasks. 18-24 hours before the FLIPR experiment, cells were released from their flasks, centrifuged, and resuspended in nutrient medium at 2.5×10^5 cells/ml. The cells were aliquoted into black-walled 96-well plates at a density of 50,000 cells/well and incubated overnight in 5% CO2 at 37° C. On the day of the experiment, cells were washed in FLIPR buffer (calcium- and magnesium-free Hank's balanced salt solution, 10 mM HEPES, 2 mM CaCl2, 2.5 mM probenecid; FB). Each well received 100 μl FB and 100 μl of the fluorescent dye Fluo-3 AM [2 μM final conc.]. After a 1 hour dye loading incubation at 37° C., the cells were washed 4 times with FB, and a final 75 μl/well FB was left in each well.
(§3) Test compounds (dissolved in DMSO at 10 mM and serially diluted with FB) or vehicle were added to each well (25 μl of a 4× solution) and allowed to equilibrate for 20 minutes at room temperature. The plates were then placed in the FLIPR and a baseline fluorescence measurement (excitation at 488 nm and emission at 510-570 nm) was obtained for 10 seconds before a 100 μl/well agonist or vehicle addition. The agonist was a 2× solution of α,β-meATP producing a final concentration of 1 μM (P2X3) or 5 μM (P2X2/3). Fluorescence was measured for an additional 2 minutes at 1 second intervals after agonist addition. A final addition of ionomycin (5 μM, final concentration) was made to each well of the FLIPR test plate to establish cell viability and maximum fluorescence of dye-bound cytosolic calcium. Peak fluorescence in response to the addition of α,β-meATP (in the absence and presence of test compounds) was measured and inhibition curves generated using nonlinear regression. PPADS, a standard P2X antagonist, was used as a positive control.

In the next test the target is T2, human P2X2/3 receptor (Homo sapiens, UniProt P56373+Q9UBL9).
T2 construct: expressed in transfected cells; host or cells: CHO-K1
T2 sequence (Q9UBL9 1-471): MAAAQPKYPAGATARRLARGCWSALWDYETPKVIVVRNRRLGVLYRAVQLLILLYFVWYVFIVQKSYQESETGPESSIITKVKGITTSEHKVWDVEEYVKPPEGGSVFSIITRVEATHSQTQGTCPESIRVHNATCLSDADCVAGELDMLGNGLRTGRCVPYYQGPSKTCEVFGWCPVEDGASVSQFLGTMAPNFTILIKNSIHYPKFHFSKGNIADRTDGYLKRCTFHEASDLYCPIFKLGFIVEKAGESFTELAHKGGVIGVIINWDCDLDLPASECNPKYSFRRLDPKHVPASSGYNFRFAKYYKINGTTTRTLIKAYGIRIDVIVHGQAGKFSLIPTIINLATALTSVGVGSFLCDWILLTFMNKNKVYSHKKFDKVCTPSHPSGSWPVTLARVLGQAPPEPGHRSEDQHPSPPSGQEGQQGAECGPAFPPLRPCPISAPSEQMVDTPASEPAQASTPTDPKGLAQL
T2 sequence (P56373 1-397): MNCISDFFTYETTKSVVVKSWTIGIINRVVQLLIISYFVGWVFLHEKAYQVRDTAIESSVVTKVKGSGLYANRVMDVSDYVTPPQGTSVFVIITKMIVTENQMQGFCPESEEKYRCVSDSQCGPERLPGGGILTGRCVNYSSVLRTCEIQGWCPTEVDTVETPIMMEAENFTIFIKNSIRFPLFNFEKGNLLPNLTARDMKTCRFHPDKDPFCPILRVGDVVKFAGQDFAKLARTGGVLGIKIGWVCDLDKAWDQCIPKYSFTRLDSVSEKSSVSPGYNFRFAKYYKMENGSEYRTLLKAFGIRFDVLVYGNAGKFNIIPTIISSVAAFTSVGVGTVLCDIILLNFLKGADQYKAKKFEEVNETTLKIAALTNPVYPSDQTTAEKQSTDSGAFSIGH
As to the kind of experiment: P2X2/3 FLIPR (Fluorometric Imaging Plate Reader) assay. Format: cell-based. Particulars: CHO-K1 cells transfected with human P2X2/3; agonist α,β-meATP 5 μM; Fluo-3 calcium fluorescence. Here is the method: as §1, §2, §3

Turning to `Cc1ccc(-c2cc(C(=O)NCc3cnc(C)cn3)cc3c2cnn3CC(C)C)nc1` [Compound 1, 1-Isobutyl-4-(5-methyl-pyridin-2-yl)-1H-indazole-6-carboxylic acid (5-methyl-pyrazin-2-ylmethyl)-amide], at rat P2X3 receptor, the “pKi P2X3” value was 7.3. The “pKi P2X2/3” value at human P2X2/3 receptor amounted to 5.78.
In the same order, the values of `CCCCn1ncc2c(-c3ccc(C)cn3)cc(C(=O)NCc3cnc(C)cn3)cc21` [Compound 2, 1-Butyl-4-(5-methyl-pyridin-2-yl)-1H-indazole-6-carboxylic acid (5-methyl-pyrazin-2-ylmethyl)-amide] are 7.38 and 6.34.
On to `CCCCn1ncc2c(-c3ccc(C)cn3)cc(C(=O)N[C@@H](C)CO)cc21` [Compound 3, 1-Butyl-4-(5-methyl-pyridin-2-yl)-1H-indazole-6-carboxylic acid ((S)-2-hydroxy-1-methyl-ethyl)-amide], for which the “pKi P2X3” value at rat P2X3 receptor was found to be 6.31.
With `Cc1ccc(-c2cc(C(=O)NCc3cnc(C)cn3)cc3c2cnn3C(C)C)nc1` [Compound 4, 1-Isopropyl-4-(5-methyl-pyridin-2-yl)-1H-indazole-6-carboxylic acid (5-methyl-pyrazin-2-ylmethyl)-amide], the “pKi P2X3” value at rat P2X3 receptor stood at 6.58. In addition, at human P2X2/3 receptor, the “pKi P2X2/3” value was determined as 4.92.
Take `Cc1ccc(-c2cc(C(=O)N[C@@H](C)CO)cc3c2cnn3C(C)C)nc1` [Compound 5, 1-Isopropyl-4-(5-methyl-pyridin-2-yl)-1H-indazole-6-carboxylic acid ((S)-2-hydroxy-1-methyl-ethyl)-amide]: the “pKi P2X2/3” value at human P2X2/3 receptor came to 5.
Regarding `COCCn1ncc2c(-c3ccc(C)cn3)cc(C(=O)NCc3cnc(C)cn3)cc21` [Compound 6, 1-(2-Methoxy-ethyl)-4-(5-methyl-pyridin-2-yl)-1H-indazole-6-carboxylic acid (5-methyl-pyrazin-2-ylmethyl)-amide], at rat P2X3 receptor, the “pKi P2X3” value amounted to 5.51. In addition, the “pKi P2X2/3” value on human P2X2/3 receptor amounted to 5.
In the same order, the values of `Cc1ccc(-c2cc(C(=O)NCc3cnc(C)cn3)cc3c2cnn3CCC(C)C)nc1` [Compound 7, 1-(3-Methyl-buty)-4-(5-methyl-pyridin-2-yl)-1H-indazole-6-carboxylic acid (5-methyl-pyrazin-2-ylmethyl)-amide] are 7.47 and 6.17.
As to `Cc1ccc(-c2cc(C(=O)NCc3ccc(C)nn3)cc3c2cnn3CCC(C)C)nc1` [Compound 8, 1-(3-Methyl-butyl)-4-(5-methyl-pyridin-2-yl)-1H-indazole-6-carboxylic acid (6-methyl-pyridazin-3-ylmethyl)-amide], on rat P2X3 receptor, the “pKi P2X3” value was 7.66. Moreover, the “pKi P2X2/3” value at human P2X2/3 receptor amounted to 6.23.
On the same counts, the results for `Cc1ccc(-c2cc(C(=O)NCc3cnc(C)cn3)cc3c2cnn3Cc2ccccc2)nc1` [Compound 9, 1-Benzyl-4-(5-methyl-pyridin-2-yl)-1H-indazole-6-carboxylic acid (5-methyl-pyrazin-2-ylmethyl)-amide] are 7.25 and 6.25.
On the same counts, the results for `Cc1ccc(-c2cc(C(=O)N[C@@H](C)CO)cc3c2cnn3Cc2ccccc2)nc1` [Compound 10, 1-Benzyl-4-(5-methyl-pyridin-2-yl)-1H-indazole-6-carboxylic acid ((S)-2-hydroxy-1-methyl-ethyl)-amide] are 6.2 and 5.61.
On to `Cc1ccc(-c2cc(C(=O)NCc3ccc(C)nn3)cc3c2cnn3Cc2ccccc2)nc1` [Compound 11, 1-Benzyl-4-(5-methyl-pyridin-2-yl)-1H-indazole-6-carboxylic acid (6-methyl-pyridazin-3-ylmethyl)-amide], for which the “pKi P2X3” value on rat P2X3 receptor was determined as 7.62. On human P2X2/3 receptor, the “pKi P2X2/3” value came to 6.56.
In the same order, the values of `Cc1ccc(-c2cc(C(=O)NCc3cnc(C)cn3)cc3c2cnn3CC(F)(F)F)nc1` [Compound 12, 4-(5-Methyl-pyridin-2-yl)-1-(2,2,2-trifluoro-ethyl)-1H-indazole-6-carboxylic acid (5-methyl-pyrazin-2-ylmethyl)-amide] are 6.52 and 5.7.
Consider `Cc1ccc(-c2cc(C(=O)NCc3ccc(C)nn3)cc3c2cnn3CC(F)(F)F)nc1` [Compound 13, 4-(5-Methyl-pyridin-2-yl)-1-(2,2,2-trifluoro-ethyl)-1H-indazole-6-carboxylic acid (6-methyl-pyridazin-3-ylmethyl)-amide], for which the “pKi P2X3” value at rat P2X3 receptor is 7.19. Also, at human P2X2/3 receptor, the “pKi P2X2/3” value is on record as 6.51.
In the same order, the values of `Cc1ccc(-c2cc(C(=O)NCc3cnc(C)cn3)cc3c2cnn3-c2ccccc2)nc1` [Compound 14, 4-(5-Methyl-pyridin-2-yl)-1-phenyl-1H-indazole-6-carboxylic acid (5-methyl-pyrazin-2-ylmethyl)-amide] are 7.44 and 6.54.
Consider `Cc1ccc(-c2cc(C(=O)N[C@@H](C)CO)cc3c2cnn3-c2ccccc2)nc1` [Compound 15, 4-(5-Methyl-pyridin-2-yl)-1-phenyl-1H-indazole-6-carboxylic acid ((S)-2-hydroxy-1-methyl-ethyl)-amide], for which the “pKi P2X3” value at rat P2X3 receptor worked out at 6.19. Besides, the “pKi P2X2/3” value at human P2X2/3 receptor turned out to be 5.34.
On the same counts, the results for `Cc1ccc(-n2ncc3c(-c4ccc(C)cn4)cc(C(=O)NCc4cnc(C)cn4)cc32)cc1` [Compound 16, 4-(5-Methyl-pyridin-2-yl)-1-p-tolyl-1H-indazole-6-carboxylic acid (5-methyl-pyrazin-2-ylmethyl)-amide] are 7.7 and 6.4.
On to `Cc1ccc(-c2cc(C(=O)NCc3cnc(C)cn3)cc3c2ccn3C(C)C)nc1` [Compound 26, 1-Isopropyl-4-(5-methyl-pyridin-2-yl)-1H-indole-6-carboxylic acid (5-methyl-pyrazin-2-ylmethyl)-amide], for which the “pKi P2X3” value on rat P2X3 receptor is 6.26.
For the compound `Cc1ccc(-c2cc(C(=O)N[C@@H](C)CO)cc3c2ccn3C(C)C)nc1` [Compound 27, 1-Isopropyl-4-(5-methyl-pyridin-2-yl)-1H-indole-6-carboxylic acid ((S)-2-hydroxy-1-methyl-ethyl)-amide], the “pKi P2X3” value on rat P2X3 receptor was determined as 5.48.
On the same count and under the same terms, with `Cc1ccc(-c2cc(C(=O)NCc3cnc(C)cn3)cc3c2ncn3CC(C)C)nc1` [Compound 28, 3-Isobutyl-7-(5-methyl-pyridin-2-yl)-3H-benzoimidazole-5-carboxylic acid (5-methyl-pyrazin-2-ylmethyl)-amide] the figure was 6.46.
Still for that read-out and setting: as for `Cc1ccc(-c2cc(C(=O)N[C@@H](C)CO)cc3c2ncn3CC(C)C)nc1` [Compound 29, 3-Isobutyl-7-(5-methyl-pyridin-2-yl)-3H-benzoimidazole-5-carboxylic acid ((S)-2-hydroxy-1-methyl-ethyl)-amide], the figure is 5.24.
